From patent US4097599A, “Triazoles” (Commonwealth Scientific and Industrial Research Organization, priority 1973, dated 1978)
pEC50, pIC50: −log10 of the molar value. Values after ≈ are worked out from the molar mass of the structure shown. Like-named read-outs stand apart in the source and are kept apart here.

Experiments:
[1] = test system: Boophilus microplus larvae; assay: Acaricide testing: toxicity to Boophilus microplus larvae; assay type: in vivo, Boophilus microplus (cattle tick); details: 7-14 day old larvae, packets, 24 hours
Experimental: (§1) The new compounds were examined in several biological tests. The acaricidal activity was measured against the larvae of the Australian cattle tick (Boophilus microplus). The specificity of interference of the designed compounds with mitochondrial oxidative processes was examined by the differential inhibition of growth of Saccharomyces cerevisiae with ethanol or glucose as substrates.
The determinations of mortalities were carried out in packets on 7-14 day old larvae of the cattle tick Boophilus microplus using the method described by Stone^1. Mortalities were counted 24 hours after the application of the compounds. The activities of DDT and BTS 27271 were also determined.

[2] = test system: rat liver monoamine oxidase; assay: Inhibition of rat liver monoamine oxidase; assay type: biochemical; details: for Relative inhibition of rat liver monoamine oxidase: relative to I50 value of BTS 27271 = 100
From the text: (§2) Other biochemical tests carried out with the compounds were the measurement of their effects on the uncoupling of oxidative phosphorylation and the inhibition of energy transfer in the mitochondrial respiration sequences. In the light of a known report on the action of certain acaricides as monoamine oxidase (MAO) inhibitors, the new structures were also examined in this test, and their activity compared to the reported MAO inhibition shown by the potent acaricide N-(2,4-dimethylphenyl)-N'-methyl formamidine (BTS 27271).
Purified intact rat liver mitochondria were disrupted by treating with triton X-100 (1% w/v) for 20 mins. at 0°-4°. The MAO activity was measured spectrophotometrically at 360 nm as described by Weissbach, H. et al. ^10. The activity of BTS 27271 was determined by this method and the enzyme inhibition for other compounds was expressed relative to its I50 value.

[3] = test system: oxidative phosphorylation in rat liver mitochondria; assay: Oxidative phosphorylation in rat liver mitochondria (uncoupling, State 3 respiration); assay type: biochemical; details: for pEC50: concentration for 50% effect, read-out: Uncoupling activity of oxidative phosphorylation in rat liver mitochondria, I50
From the text: as §2
Rat liver mitochondria were prepared by the method described by Hogeboon^6 in a medium containing 0.25 M sucrose; 10 mM tris-HCl (pH 7.40); 0.5 mM EDTA and finally suspended in the same medium plus bovine-serum albumin (2 mg/ml). Oxidative phosphorylation was measured polarographically at 30°, as described by Estabrook, R. W. et al.^7. The incubation medium contained 0.25 M sucrose; 10 mM tris-HCl (pH 7.4); 5 mM K2 HPO4 (pH 7.4); 0.5 mM EDTA and bovine-serum albumin (2 mg/ml). DNP was added and control tests were carried out using n-octyl guanidine ^8 and either pyruvate or succinate as substrates.
(§3) State 3 and state 4 respiration rates were determined by the method of Chance, B. et al.^9. Percentage uncoupling in the presence of antimetabolities was calculated from the equation [formula] Percentage inhibition of coupled respiration was calculated from the equation [formula] Relative uncoupling and n-octylguanidine like effects are compared as the concentrations required to give 50% effects (I50).

Saccharomyces cerevisiae = assay: Inhibition of the growth of Saccharomyces cerevisiae on two substrates; assay type: cell-based, Saccharomyces cerevisiae strain L410; details: 24 hours
Experimental: as §1
Saccharamyces cerevisiae, strain L410, was grown aerobically at 28° in a salts medium containing 1% Difco yeast extract and 0.5% bacteriological peptone as described by Wallace, P. G. et al.^2 with either ethanol (1% w/v) or glucose (5% w/v) as carbon and energy sources. Cells were innoculated at a concentration of 10 μg of dry weight per ml and grown for 24 hours. Growth was measured as described by Clark-Walker et al.^3, and compared with control incubations.

yeast mitochondria = assay: Oxidative phosphorylation in yeast mitochondria (uncoupling, State 3 respiration); assay type: biochemical, yeast (Saccharomyces cerevisiae)
From the text: as §2
Yeast mitochondria were prepared as described by Watson, K. et al.^4. The effects of anti-metabolites on oxidative phosphorylation were determined in a polarograph cell at 30° in the medium described by Haslam, J. M. et al.^5. Substrates were either succinate (4.0 mM) or ethanol (0.3M). Other additions, where indicated, were Sigma ADP and 2:4-dinitrophenol (DNP).
as §3

Tetranychus urticae = assay: Activity against the two-spotted spider mite on discs of dwarf bean leaf; assay type: in vivo; details: read-out: LC50, Tetranychus urticae
Experimental: Compounds of the invention were tested for their activity against the two-spotted spider mite, Tetranychus urticae. In this test, discs of dwarf bean leaf were treated with varying known amounts of the test compound. On each disc, 15 mites were placed and the sample kept under cover. Mortalities were determined after 24 hours and compared with […] controls.

[4] = ethanol substrate, read-out: Inhibition of the growth of Saccharomyces cerevisiae, ethanol, I50
[5] = glucose substrate, read-out: Inhibition of the growth of Saccharomyces cerevisiae, glucose, I50

| Compound | Relative inhibition of rat liver monoamine oxidase [2] | pIC50 (Saccharomyces cerevisiae; [4]) | LC50, toxicity to Boophilus microplus larvae [1] [%] | also measured |
| --- | --- | --- | --- | --- |
| FC(F)(F)c1n[nH]c(-c2ccccc2)n1 [20(c), 3(5)-phenyl-5(3)-trifluoromethyl-1,2,4-triazole] | 0 | 3.52 | 0.60 | pEC50 [3]: 4.10; Uncoupling activity in rat liver mitochondrial preparations (result in words) [3]: high uncoupling activity; pIC50 (Saccharomyces cerevisiae; [5]): 3.00; Uncoupling activity in yeast mitochondrial preparations (result in words) (yeast mitochondria): high uncoupling activity |
| FC(F)(F)c1n[nH]c(-c2ccc(Cl)cc2)n1 [20(d), 3(5)-(4-chlorophenyl)-5(3)-trifluoromethyl-1,2,4-triazole] | 27 | 4.52 | 0.45 | Inhibition of rat liver monoamine oxidase (result in words) [2]: potent inhibition; pEC50 [3]: 4.92; Uncoupling activity in rat liver mitochondrial preparations (result in words) [3]: high uncoupling activity; pIC50 (Saccharomyces cerevisiae; [5]): 3.52; Uncoupling activity in yeast mitochondrial preparations (result in words) (yeast mitochondria): high uncoupling activity |
| FC(F)(F)c1n[nH]c(-c2ccc(Cl)c(Cl)c2)n1 [20(e), 3(5)-(3,4-dichlorophenyl)-5(3)-trifluoromethyl-1,2,4-triazole] | 42 | 5.00 | 0.38 | Inhibition of rat liver monoamine oxidase (result in words) [2]: potent inhibition; pEC50 [3]: 5.64; Uncoupling activity in rat liver mitochondrial preparations (result in words) [3]: high uncoupling activity; pIC50 (Saccharomyces cerevisiae; [5]): 3.52; Uncoupling activity in yeast mitochondrial preparations (result in words) (yeast mitochondria): high uncoupling activity |
| CN=CNc1ccc(C)cc1C [BTS 27271, N-(2,4-dimethylphenyl)-N'-methyl formamidine, reference compound] | 100 |  | 0.2 |  |
| Clc1ccc(C(c2ccc(Cl)cc2)C(Cl)(Cl)Cl)cc1 [DDT, reference compound] |  |  | 0.78 | LC50 (Tetranychus urticae; 24 h): > 20000 µg/mL |
| FC(F)(F)c1nncn1-c1ccccc1 [Example 1, 4-Phenyl-3-trifluoromethyl-1,2,4-triazole] | 0 | 2.60 | 0.62 |  |
| Cc1ccc(-n2cnnc2C(F)(F)F)c(C)c1 [Example 9, 4-(2,4-Dimethylphenyl)-3-trifluoromethyl-1,2,4-triazole] |  |  | 1.55 |  |
| Cc1cc(Cl)ccc1-n1cnnc1C(F)(F)F [Example 10, 4-(4-Chloro-2-methylphenyl)-3-trifluoromethyl-1,2,4-triazole] |  |  | 0.87 |  |

Further lines, with some results ahead:

| Relative inhibition of rat liver monoamine oxidase [2] | pIC50 (Saccharomyces cerevisiae; [4]) | Compound | LC50, toxicity to Boophilus microplus larvae [1] [%] | also measured |
| --- | --- | --- | --- | --- |
| 2 | 2.60 | FC(F)(F)c1nncn1-c1ccc(Cl)cc1 [Example 3, 4-(4-chlorophenyl)-3-trifluoromethyl-1,2,4-triazole] | 0.60 |  |
| 2.5 |  | Cc1ccccc1-n1cnnc1C(F)(F)F [Example 4, 4-(2-methylphenyl)-3-trifluoromethyl-1,2,4-triazole] | 0.52 |  |
| 0 | 4.00 | CC(C)(C)c1ccccc1-n1cnnc1C(F)(F)F [Example 5, 4-(2-t-butylphenyl)-3-trifluoromethyl-1,2,4-triazole] | 2.16 | pIC50 (yeast mitochondria; yeast mitochondria, read-out: Half-maximal effect on State 3 respiration by yeast mitochondria): 3.80 |
| 5 |  | COc1ccccc1-n1cnnc1C(F)(F)F [Example 6, 4-(2-methoxyphenyl)-3-trifluoromethyl-1,2,4-triazole] | 0.38 |  |
| 2.5 |  | CCOc1ccc(-n2cnnc2C(F)(F)F)cc1 [Example 7, 4-(4-ethoxyphenyl)-3trifluoromethyl-1,2,4-triazole] | 0.61 | LC50 (Tetranychus urticae; discs of dwarf bean leaf, 24 hours): 1400 µg/mL (≈ 5.44 mM) |
| 1 |  | CC(C)(C)c1ccc(-n2cnnc2C(F)(F)F)cc1 [Example 8, 4-(4-t-butylphenyl)-3-trifluoromethyl-1,2,4-triazole] | 1.8 |  |
| 2 |  | Cc1nnc(C(F)(F)F)n1-c1ccccc1 [Example 11, 3-Methyl-4-phenyl-5-trifluoromethyl-1,2,4-triazole] | 0.50 |  |
| 200 |  | FC(F)(F)c1nnc(-c2ccc(Cl)cc2)n1-c1ccc(Cl)cc1 [Example 12, 3,4-bis(4-chlorophenyl)-5-trifluoromethyl-1,2,4-triazole] | > 1 | Inhibition of rat liver monoamine oxidase (result in words) [2]: potent inhibition |
| 400 |  | FC(F)(F)c1ncn(-c2ccccc2)n1 [Example 13, 1-phenyl-3-trifluoromethyl-1,2,4-triazole] | 2.75 | Inhibition of rat liver monoamine oxidase (result in words) [2]: potent inhibition; Inhibition of rat liver monoamine oxidase compared with BTS 27271 ([2]; times that determined for BTS 27271 in a similar test): four times |
| 0 |  | FC(F)(F)c1nc[nH]n1 [Example 16, 3-trifluoromethyl-1,2,4-triazole] | 0.50 |  |
